The record followed here is patent US20260138961A1, “MODULATORS OF MITOCHONDRIAL DNA REPLICATION” (Pretzel Therapeutics, Inc., priority 2022, published 2026).

The first test concerns the target T1, wild type human POLγ (POLγA:WT) (Homo sapiens, UniProt P54098).
T1 sequence (P54098 1-1239): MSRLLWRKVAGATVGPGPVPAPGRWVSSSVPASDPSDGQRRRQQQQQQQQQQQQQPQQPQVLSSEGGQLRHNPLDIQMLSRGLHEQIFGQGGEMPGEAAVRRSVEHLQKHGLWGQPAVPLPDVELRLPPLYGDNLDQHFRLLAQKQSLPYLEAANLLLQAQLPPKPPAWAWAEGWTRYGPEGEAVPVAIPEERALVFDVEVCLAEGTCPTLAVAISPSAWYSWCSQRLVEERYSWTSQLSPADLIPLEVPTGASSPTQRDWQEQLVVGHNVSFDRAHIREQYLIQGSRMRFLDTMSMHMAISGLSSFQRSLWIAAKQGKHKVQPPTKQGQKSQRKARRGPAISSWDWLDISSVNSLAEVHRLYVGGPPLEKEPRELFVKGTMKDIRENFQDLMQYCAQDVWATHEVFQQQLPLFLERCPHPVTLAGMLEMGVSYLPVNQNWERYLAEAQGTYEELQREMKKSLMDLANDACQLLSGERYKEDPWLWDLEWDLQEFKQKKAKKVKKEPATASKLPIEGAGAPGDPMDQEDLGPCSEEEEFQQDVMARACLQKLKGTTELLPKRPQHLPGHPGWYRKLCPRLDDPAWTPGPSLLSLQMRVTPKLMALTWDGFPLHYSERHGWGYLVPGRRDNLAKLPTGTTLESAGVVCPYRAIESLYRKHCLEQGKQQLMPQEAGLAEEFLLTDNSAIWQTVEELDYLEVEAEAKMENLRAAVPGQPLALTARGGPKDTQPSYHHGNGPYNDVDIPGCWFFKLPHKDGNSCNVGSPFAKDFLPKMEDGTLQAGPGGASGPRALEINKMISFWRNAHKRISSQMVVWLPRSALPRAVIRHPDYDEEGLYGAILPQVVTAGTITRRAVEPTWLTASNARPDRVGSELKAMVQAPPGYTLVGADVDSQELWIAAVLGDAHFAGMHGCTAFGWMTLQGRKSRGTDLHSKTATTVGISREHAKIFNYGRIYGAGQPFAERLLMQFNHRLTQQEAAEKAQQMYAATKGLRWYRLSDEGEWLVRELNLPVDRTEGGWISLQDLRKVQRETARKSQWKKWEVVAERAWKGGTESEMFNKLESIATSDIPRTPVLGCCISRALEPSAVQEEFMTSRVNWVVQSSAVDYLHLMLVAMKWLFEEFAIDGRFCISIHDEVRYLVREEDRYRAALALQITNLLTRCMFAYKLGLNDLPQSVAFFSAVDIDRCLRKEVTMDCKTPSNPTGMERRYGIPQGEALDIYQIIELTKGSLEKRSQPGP
T1 sequence (Q9UHN1 1-485 partner): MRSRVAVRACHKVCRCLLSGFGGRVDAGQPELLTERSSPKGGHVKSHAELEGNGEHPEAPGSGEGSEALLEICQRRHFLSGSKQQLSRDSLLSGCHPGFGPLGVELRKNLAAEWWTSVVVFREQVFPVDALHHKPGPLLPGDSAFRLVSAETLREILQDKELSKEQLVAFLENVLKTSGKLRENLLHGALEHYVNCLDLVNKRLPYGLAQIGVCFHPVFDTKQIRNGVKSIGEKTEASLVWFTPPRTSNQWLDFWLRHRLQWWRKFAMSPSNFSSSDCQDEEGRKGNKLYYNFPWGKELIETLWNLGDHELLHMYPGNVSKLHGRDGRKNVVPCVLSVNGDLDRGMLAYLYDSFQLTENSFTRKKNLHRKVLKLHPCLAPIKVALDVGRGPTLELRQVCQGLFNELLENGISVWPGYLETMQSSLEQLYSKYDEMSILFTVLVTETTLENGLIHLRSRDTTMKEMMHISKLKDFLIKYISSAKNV
Briefly: DNA polymerization assay, wild type POLγ. Format: biochemical. The conditions noted are these: 0.1 μM dNTP, read-out: WT AC50 (μM) at 0.1 μM. On the procedure: DNA Polymerization Assay to Monitor Effects on Human Wildtype POLγ and Four Disease-Causing Mutant Variants of Human POLγ.
The ability of small molecules to stimulate the polymerase activity of POLγ was analyzed in a quantitative fluorescence SYBR Green I assay with fluorescence intensity (FI) readout.
In the presence of dNTPs, wild type human POLγ and mutant derivatives thereof were incubated with single-stranded, circular M13mp18 ssDNA hybridized to a short DNA oligonucleotide that functions as a primer for initiation of DNA synthesis. POLγ and mutant derivatives thereof will extend the primer and use the M13mp18 molecule as a template to synthesize long stretches of double-stranded DNA. SYBR Green I, which is a double-stranded DNA-binding dye, was used to quantify formation of double-stranded DNA in the reaction. When bound to double-stranded DNA, SYBR Green I fluorescence increases by up to 100-fold.
The assay was performed in the 384-well plate format. Upon addition of compounds, changes in double-stranded DNA synthesis activity can be monitored by following effects on fluorescent intensity.
The reactions also contained the accessory POLγB subunit, and the human mitochondrial single-stranded DNA binding protein (mtSSB).
The DNA template mixture used in the assay contained 0.5 nM primed M13 mp18 ssDNA, 400 nM mtSSB, 0.1 mM Tris-HCl (pH 8.0), 0.1 mM dNTP, 10 mM MgCl2, 0.1 mg/mL BSA, 1 mM TCEP solution, and 0.02% Triton X-100. The DNA template mixture for the wild type protein contained either 100 μM dNTP, 1 μM dNTP, or 0.1 μM dNTP, designated in Table 2 as 100 μM, 1 μM, and 0.1 μM, respectfully.
Microplates with compounds (0.1 μL in each well) to be tested in the assay were prepared from 10 mM compound stocks in 100% DMSO, and equal amounts of DMSO without any compound were added to positive and negative control wells.
The protein mixture was dispensed (5 μL into each well) into compound plates and incubated at 37° C. for 15 minutes. After incubation, 5 μL of the DNA template mixture was dispensed into each well. The plates were then incubated at 37° C. for 2 hours.
During incubation, a combined stop buffer and detection reagent solution was prepared. The buffer contained 25 mM EDTA (pH 8.0), 0.02% Triton X-100, and SYBR Green I [Invitrogen] diluted 10,000× (for fluorescent readout). EDTA will stop the enzymatic reaction by chelating magnesium ions.
Consider `Cc1cc(S(=O)(=O)Nc2cc(C(=O)N3CCC[C@H]3C)ccc2F)c(C)cc1Cl` [Example 50, (R)-4-chloro-N-(2-fluoro-5-(2-methylpyrrolidine-1-carbonyl)phenyl)-2,5-dimethylbenzenesulfonamide], for which the AC50 stood at 1 µM.
Still for that read-out and setting: the same measure for `Cc1cc(S(=O)(=O)Nc2ccc(F)c(C(=O)N3CCC[C@H]3C)c2)c(C)cc1Cl` [Example 49, (R)-4-chloro-N-(4-fluoro-3-(2-methylpyrrolidine-1-carbonyl)phenyl)-2,5-dimethylbenzenesulfonamide]: 2 µM.
Still for that read-out and setting: the same measure for `Cc1ccc(C)c(S(=O)(=O)Nc2cccc(C(=O)N3CCOCC3)c2)c1` [Example 29, 2,5-dimethyl-N-(3-(morpholine-4-carbonyl)phenyl)benzenesulfonamide]: 2 µM.
Still for that read-out and setting: the same measure for `Cc1cc(S(=O)(=O)Nc2cccc(C(=O)N3CCN(C)C[C@H]3C)c2)c(C)cc1Cl` [Example 54, (R)-4-chloro-N-(3-(2,4-dimethylpiperazine-1-carbonyl)phenyl)-2,5-dimethylbenzenesulfonamide]: 1 µM.

Still in this test, the particulars now being: 100 μM dNTP, read-out: WT AC50 (μM) at 100 μM.
For `Cc1cc(S(=O)(=O)Nc2cccc(C(=O)N(C)C(C)CO)c2)c(C)cc1Cl` (single isomer, unassigned) [Example 15, 3-((4-chloro-2,5-dimethylphenyl)sulfonamido)-N-(1-hydroxypropan-2-yl)-N-methylbenzamide], the AC50 was greater than 10 µM.
The same measure, in the same setting: as for `Cc1cc(S(=O)(=O)Nc2csc(-n3cccn3)n2)c(C)cc1Cl` [Example 178, N-(2-(1H-pyrazol-1-yl)thiazol-4-yl)-4-chloro-2,5-dimethylbenzenesulfonamide], the figure is greater than 100 µM.
As to `Cc1cc(S(=O)(=O)Nc2cccc(C(=O)N3CCCC34CC4)c2)c(C)cc1Cl` [Example 162, N-(3-(4-azaspiro[2.4]heptane-4-carbonyl)phenyl)-4-chloro-2,5-dimethylbenzenesulfonamide], the AC50 was 0.4 µM.
On to `Cc1cc(S(=O)(=O)Nc2csc(C(=O)N(C)CC(N)=O)n2)c(C)cc1Cl` [Example 172, N-(2-amino-2-oxoethyl)-4-((4-chloro-2,5-dimethylphenyl)sulfonamido)-N-methylthiazole-2-carboxamide], for which the AC50 was greater than 100 µM.
Consider `Cc1cc(S(=O)(=O)Nc2cn(Cc3ccccc3)cn2)c(C)cc1Cl` [Example 168, N-(1-benzyl-1H-imidazol-4-yl)-4-chloro-2,5-dimethylbenzenesulfonamide], for which the AC50 is greater than 10 µM.
The same measure, in the same setting: the same measure for `Cc1cnc(-c2cccc(NS(=O)(=O)c3cc(C)c(Cl)cc3C)c2)s1` [Example 21, 4-chloro-2,5-dimethyl-N-(3-(5-methylthiazol-2-yl)phenyl)benzenesulfonamide]: 1 µM.
Same read-out and setting: as for `COc1cccc(-c2nc(NS(=O)(=O)c3cc(C)c(Cl)cc3C)cs2)c1` [Example 165, 4-chloro-N-(2-(3-methoxyphenyl)thiazol-4-yl)-2,5-dimethylbenzenesulfonamide], the figure is 0.7 µM; as for `Cc1ccc(C)c(S(=O)(=O)Nc2cccc(-c3nccs3)c2)c1` [Example 60], 0.6 µM; as for `Cc1cc(S(=O)(=O)Nc2csc(C(=O)N(CC(N)=O)C3CCCC3)n2)c(C)cc1Cl` [Example 177, N-(2-amino-2-oxoethyl)-4-((4-chloro-2,5-dimethylphenyl)sulfonamido)-N-cyclopentylthiazole-2-carboxamide], greater than 100 µM.
Consider `CC[C@@H]1CCCN1C(=O)c1cccc(NS(=O)(=O)c2cc(C)c(Cl)cc2C)c1` [Example 65, (R)-4-chloro-N-(3-(2-ethylpyrrolidine-1-carbonyl)phenyl)-2,5-dimethylbenzenesulfonamide], for which the AC50 was 8 µM.
Same read-out and setting: the same measure for `Cc1cc(S(=O)(=O)Nc2cccc(-c3cc(C4CC4)[nH]n3)c2)c(C)cc1Cl` [Example 64, 4-chloro-N-(3-(5-cyclopropyl-1H-pyrazol-3-yl)phenyl)-2,5-dimethylbenzenesulfonamide]: 0.7 µM.

A word on the AC50: it is the midpoint of the concentration-response curve, whichever way the signal moves.
